Experimental data published in patent publication US4324728A, “Compound nanaomycin A and derivatives thereof and a process for producing the same” (The Kitasato Institute, priority 1976, dated 1982).
Values after ≈ are worked out from the molar mass of the structure shown.

What was measured:
Mycobacterium smegmatis = experiment: Minimal inhibitory concentration (agar); assay type: cell-based; conditions: Mycolicibacterium smegmatis, 48 h; nutrient agar, pH 7.0, 2 days, 37° C.
Experimental: (§1) Medium N nutrient agar (pH 7.0, 2 days, 37° C.)
(§2) MIC Minimal inhibitory concentration

[1] = tested on: Klebsiella pneumoniae PCI 602; experiment: Minimal inhibitory concentration (agar); assay type: cell-based; conditions: PCI602, 48 h, nutrient agar, pH 7.0, 2 days, 37° C.
[2] = tested on: Xanthomonas oryzae N-5824; experiment: microbe, parasite or virus in culture; assay type: cell-based; conditions: N5824, 48 h, pH 7
[3] = tested on: Aspergillus fumigatus IAM 2612; experiment: Minimal inhibitory concentration (agar); assay type: cell-based; conditions: IAM2612, 96 h, potato agar, pH 6.4, 4 days, 27° C.
Experimental: P potato agar (pH 6.4, 4 days, 27° C.)
as §2

Mycoplasma gallinarum = experiment: Minimal inhibitory concentration (PPLO agar); assay type: cell-based; conditions: Mycoplasmopsis gallinarum, 192 h, Hokken PPLO agar, pH 7.8, 8 days, 37° C.
Experimental: (§3) H Hokken PPLO agar (pH 7.8, 8 days, 37° C.)
as §2
(§4) E Eiken PPLO agar (pH 7.8, 8 days, 37° C.)

Mycoplasma iners = experiment: Minimal inhibitory concentration (PPLO agar); assay type: cell-based; conditions: Mycoplasmopsis iners, 192 h; Hokken PPLO agar, pH 7.8, 8 days, 37° C.
Experimental: as §3, §2, §4

Mycoplasma pneumoniae = experiment: Minimal inhibitory concentration (PPLO agar); assay type: cell-based; conditions: 192 h, Eiken PPLO agar, pH 7.8, 8 days, 37° C.
Aspergillus fumigatus = experiment: Minimal inhibitory concentration (agar dilution method); assay type: cell-based; conditions: Aspergillus fumigatus, 96 h; potato agar, pH 6.4, 27° C., 4 days; read-out: Minimal Inhibitory Con.
Experimental: (§5) Minimal inhibitory concentration was assayed by agar dilution method
(§6) (potato agar, pH 6.4, 27° C., 4 days).

Microsporum gypseum = experiment: as above; assay type: cell-based; conditions: Nannizzia gypsea, 96 h; potato agar, pH 6.4, 27° C., 4 days; read-out: Minimal Inhibitory Con.
Experimental: as §5, §6

mycoplasma = experiment: Antimycoplasma activity, paper disc method; assay type: cell-based
Experimental: Inhibitory zone is assayed by paper disc method (Eiken PPLO agar, pH 7.8,
Nanaomycin A and derivatives thereof according to the present invention are assayed in a similar manner to that designated as the paper disc method by Itoh, et al [J. of Antibiotics, 24, 855-859 (1971)], for example, as follows: […]

Trichophyton verrucosum = experiment: Treatment of dermatomycosis of cattle; assay type: in vivo; set-up: key: +++: complete removal of scales and; ++: a little scales remained; +: removal of a part of scales; -: no removal of scale and no recovery
Experimental: When dermatomycosis of cattle caused by mass infection of Trichophyton verrucosum is treated with nanaomycin A, nanaomycin A is dissolved or suspended in a suitable carrier, for example, olive oil, and is coated on the affected part directly with or without removal of the scales. […] The results obtained by once-coating of nanaomycin A and by twice-coating (the second coating is carried out a week after the first coating) are shown in Tables 2 and 3, respectively. | I : direct coating on affected part | II : coating after removing the scales of affected | Con. : concentration of agent

Staphylococcus aureus = experiment: Growth inhibition (text summary of Table 1); assay type: cell-based; conditions: 48 h, read-out: concentration at which growth is inhibited
Experimental: as §1

[4] = tested on: Trichophyton mentagrophytes; experiment: Minimal inhibitory concentration (agar); assay type: cell-based; conditions: 96 h, pH 6.4, potato agar, pH 6.4, 4 days, 27° C.
Trichophyton purpureum = experiment: Minimal inhibitory concentration (agar); assay type: cell-based; conditions: 96 h, pH 6.4, potato agar, pH 6.4, 4 days, 27° C., read-out: MIC
fungi = experiment: Antifungal activity (in words); assay type: cell-based
Acute toxicity in mice = conditions: intra-penetrial injection
[5] = once-coating, I direct coating, 0.1 mg/ml
[6] = once-coating, I direct coating, 1 mg/ml
[7] = once-coating, I direct coating, 10 mg/ml
[8] = once-coating, II after removing scales, 0.1 mg/ml
[9] = once-coating, II after removing scales, 1 mg/ml
[10] = once-coating, II after removing scales, 10 mg/ml
[11] = twice-coating, I direct coating, 0.1 mg/ml
[12] = twice-coating, I direct coating, 1 mg/ml
[13] = twice-coating, I direct coating, 10 mg/ml
[14] = twice-coating, II after removing scales, 0.1 mg/ml
[15] = twice-coating, II after removing scales, 1 mg/ml
[16] = twice-coating, II after removing scales, 10 mg/ml

CC1OC(CC(=O)O)CC2=C1C(=O)c1c(O)cccc1C2=O (centres unmarked) [Nanaomycin A, nanaomycin A] gave an MIC (Mycobacterium smegmatis) of 62.5 µg/mL (≈ 207 µM), an MIC [1] of 31.3 µg/mL (≈ 104 µM) and an MIC [2] of 62.5 µg/mL (≈ 207 µM). It also gave an MIC [3] of 12.5 µg/mL (≈ 41.4 µM), an MIC (Mycoplasma gallinarum) of 1.56 µg/mL (≈ 5.16 µM) and an MIC (Mycoplasma iners) of 3.12 µg/mL (≈ 10.3 µM). It also gave an MIC (Mycoplasma pneumoniae) of 0.013 µg/mL (≈ 0.043 µM), an MIC (Aspergillus fumigatus) of 6.3 µg/mL (≈ 20.8 µM) and an MIC (Microsporum gypseum) of 0.8 µg/mL (≈ 2.65 µM). The zone of inhibition at 10 µg/mL (mycoplasma; Mycoplasma, 24 h, 10 μg/ml, Eiken PPLO agar, pH 7.8, 37° C., 1 day, read-out: Inhibitory Zone) was 20.4 mm, the zone of inhibition at 100 µg/mL (mycoplasma; Mycoplasma, 24 h, 100 μg/ml, Eiken PPLO agar, pH 7.8, 37° C., 1 day, read-out: Inhibitory Zone) was 28.7 mm and the “antimycoplasma activity compared with deoxyfrenolicin and ethylkalafunginate” value (mycoplasma; paper disc, Table 5) was “superior to those of deoxyfrenolicin and ethylkalafunginate”. The “Result after 1 week” value (Trichophyton verrucosum; [5]) was “++”, the “Result after 2 weeks” value (Trichophyton verrucosum; [5]) was “++” and the “Result after 3 weeks” value (Trichophyton verrucosum; [5]) was “+++”. For the same compound, the “Result after 4 weeks” value (Trichophyton verrucosum; [5]) was “+++”, the “Result after 1 week” value (Trichophyton verrucosum; [6]) was “+++” and the “Result after 2 weeks” value (Trichophyton verrucosum; [6]) was “+++”. The “Result after 3 weeks” value (Trichophyton verrucosum; [6]) was “+++”, the “Result after 4 weeks” value (Trichophyton verrucosum; [6]) was “+++” and the “Result after 1 week” value (Trichophyton verrucosum; [7]) was “+++”. The “Result after 2 weeks” value (Trichophyton verrucosum; [7]) was “+++”, the “Result after 3 weeks” value (Trichophyton verrucosum; [7]) was “+++” and the “Result after 4 weeks” value (Trichophyton verrucosum; [7]) was “+++”. The “Result after 1 week” value (Trichophyton verrucosum; [8]) was “+++”, the “Result after 2 weeks” value (Trichophyton verrucosum; [8]) was “+++” and the “Result after 3 weeks” value (Trichophyton verrucosum; [8]) was “+++”. For the same compound, the “Result after 4 weeks” value (Trichophyton verrucosum; [8]) was “+++”, the “Result after 1 week” value (Trichophyton verrucosum; [9]) was “+++” and the “Result after 2 weeks” value (Trichophyton verrucosum; [9]) was “+++”. For the same compound, the “Result after 3 weeks” value (Trichophyton verrucosum; [9]) was “+++”, the “Result after 4 weeks” value (Trichophyton verrucosum; [9]) was “+++” and the “Result after 1 week” value (Trichophyton verrucosum; [10]) was “+++”. For the same compound, the “Result after 2 weeks” value (Trichophyton verrucosum; [10]) was “+++”, the “Result after 3 weeks” value (Trichophyton verrucosum; [10]) was “+++” and the “Result after 4 weeks” value (Trichophyton verrucosum; [10]) was “+++”. For the same compound, the “Result after 1 week” value (Trichophyton verrucosum; [11]) was “++”, the “Result after 2 weeks” value (Trichophyton verrucosum; [11]) was “+++” and the “Result after 3 weeks” value (Trichophyton verrucosum; [11]) was “+++”. The “Result after 4 weeks” value (Trichophyton verrucosum; [11]) was “+++”, the “Result after 1 week” value (Trichophyton verrucosum; [12]) was “++” and the “Result after 2 weeks” value (Trichophyton verrucosum; [12]) was “++”. The “Result after 3 weeks” value (Trichophyton verrucosum; [12]) was “+++”, the “Result after 4 weeks” value (Trichophyton verrucosum; [12]) was “+++” and the “Result after 1 week” value (Trichophyton verrucosum; [13]) was “+++”. The “Result after 2 weeks” value (Trichophyton verrucosum; [13]) was “+++”, the “Result after 3 weeks” value (Trichophyton verrucosum; [13]) was “+++” and the “Result after 4 weeks” value (Trichophyton verrucosum; [13]) was “+++”. The “Result after 1 week” value (Trichophyton verrucosum; [14]) was “+++”, the “Result after 2 weeks” value (Trichophyton verrucosum; [14]) was “+++” and the “Result after 3 weeks” value (Trichophyton verrucosum; [14]) was “+++”. The “Result after 4 weeks” value (Trichophyton verrucosum; [14]) was “+++”, the “Result after 1 week” value (Trichophyton verrucosum; [15]) was “+++” and the “Result after 2 weeks” value (Trichophyton verrucosum; [15]) was “+++”. For the same compound, the “Result after 3 weeks” value (Trichophyton verrucosum; [15]) was “+++”, the “Result after 4 weeks” value (Trichophyton verrucosum; [15]) was “+++” and the “Result after 1 week” value (Trichophyton verrucosum; [16]) was “+++”. The “Result after 2 weeks” value (Trichophyton verrucosum; [16]) was “+++”, the “Result after 3 weeks” value (Trichophyton verrucosum; [16]) was “+++” and the “Result after 4 weeks” value (Trichophyton verrucosum; [16]) was “+++”. It also gave an MIC (Staphylococcus aureus) of 2 to 8 µg/mL (≈ 6.62 to 26.5 µM).

In the case of CC(=O)Oc1cccc2c1C(=O)C1=C(CC(CC(=O)O)OC1C)C2=O (centres unmarked) [Acetylnanaomycin A, acetylnanaomycin A], the MIC [4] was 0.4 µg/mL (≈ 1.16 µM), the MIC (Trichophyton purpureum) was 1.6 µg/mL (≈ 4.65 µM) and the activity against fungi (fungi) was “as strong activity against fungi and mycoplasmas as nanaomycin A”. For the same compound, the “acute toxicity compared with nanaomycin A” value (Acute toxicity in mice) was “lower than that of nanaomycin A”.
